Measurements from patent US9216991B2 (Ares Trading S.A., priority 2012, dated 2015).

Each compound was assayed against T1, IRAK4 (Homo sapiens, UniProt Q9NWZ3) (assay: IRAK4 Enzymatic Assay). Conditions: His-TEV-IRAK4 20 ng/well, ATP 2 μM, STK1-biotin peptide 300 nM, 3 hours at 30° C., FlashPlate radioactivity.
T1 construct: His (N); TEV cleavage site (N)
T1 sequence (Q9NWZ3 1-460): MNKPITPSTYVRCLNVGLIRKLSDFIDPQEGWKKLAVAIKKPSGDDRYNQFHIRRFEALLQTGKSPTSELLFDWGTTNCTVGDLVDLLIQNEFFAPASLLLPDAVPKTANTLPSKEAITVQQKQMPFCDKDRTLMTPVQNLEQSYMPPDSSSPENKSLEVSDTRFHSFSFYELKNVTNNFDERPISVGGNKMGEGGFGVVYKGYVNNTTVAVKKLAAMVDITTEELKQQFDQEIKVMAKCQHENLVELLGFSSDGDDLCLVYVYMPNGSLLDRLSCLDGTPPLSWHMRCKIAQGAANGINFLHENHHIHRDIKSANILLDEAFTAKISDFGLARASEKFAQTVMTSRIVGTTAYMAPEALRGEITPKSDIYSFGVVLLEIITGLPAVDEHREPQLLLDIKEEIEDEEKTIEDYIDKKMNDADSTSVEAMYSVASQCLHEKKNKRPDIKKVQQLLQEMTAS
Type: biochemical
Summary of the method: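 Radiometric FlashPlate readout: biotin-STK1 substrate (300 nM) captured on streptavidin after EDTA stop and washes. Reaction used His-TEV-IRAK4 (20 ng/well), 2 μM [^33P]-spiked ATP and compound (1 nM-20 μM), incubated 3 h at 30 °C in 50 mM HEPES pH 7.0, 10 mM MgCl2, 5 mM MnCl2, 2 mM DTT.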

IC50 [nM]	SMILES
< 100	CCC(O)CNC(=O)[C@H]1CC[C@H](n2cc(-c3cnc(-c4cccc(-c5cnn(C)c5)c4)nc3)cn2)CC1 (stereo partly drawn) [Example 203, trans-4-(4-{2-[3-(1-Methyl-1H-pyrazol-4-yl)-phenyl]-pyrimidin-5-yl}-pyrazol-1-yl)-cyclohexanecarboxylic acid (2-hydroxy-butyl)-amide]
1000 to 5000	O=C(Cn1cc(-c2cnc(-c3cccc(-c4cnn(CCO)c4)c3)nc2)cn1)N1CCCC1 [Example 59, 2-[4-(2-{3-[1-(2-Hydroxy-ethyl)-1H-pyrazol-4-yl]-phenyl}-pyrimidin-5-yl)-pyrazol-1-yl]-1-pyrrolidin-1-yl-ethanone]
< 100	CC(O)CCNC(=O)[C@H]1CC[C@H](n2cc(-c3cnc(-c4cccc(-c5cnn(C)c5)c4)nc3)cn2)CC1 (stereo partly drawn) [Example 228, trans-4-(4-{2-[3-(1-Methyl-1H-pyrazol-4-yl)-phenyl]-pyrimidin-5-yl}-pyrazol-1-yl)-cyclohexanecarboxylic acid (3-hydroxy-butyl)-amide]
100 to 1000	CN(C)C(=O)C1CC2COCC(C1)C2n1cc(-c2cnc(-c3cccc(-c4cnn(C)c4)c3)nc2)cn1 (mixture of isomers) [Example 273, trans,cis-9-(4-{2-[3-(1-Methyl-1H-pyrazol-4-yl)-phenyl]-pyrimidin-5-yl}-pyrazol-1-yl)-3-oxa-bicyclo[3.3.1]nonane-7-carboxylic acid dimethylamide]
100 to 1000	CC(=O)N1[C@@H]2COC[C@H]1C[C@H](n1cc(-c3cnc(-c4cccc(-c5cnn(C)c5)c4)nc3)cn1)C2 [Example 193, exo-1-[7-(4-{2-[3-(1-Methyl-1H-pyrazol-4-yl)-phenyl]-pyrimidin-5-yl}-pyrazol-1-yl)-3-oxa-9-aza-bicyclo[3.3.1]non-9-yl]-ethanone]
< 100	Cn1cc(-c2cccc(-c3ncc(-c4cnn([C@H]5CC[C@]6(CCC(=O)N6C)CC5)c4)cn3)c2)cn1 [Example 285, Cis-1-Methyl-8-(4-{2-[3-(1-methyl-1H-pyrazol-4-yl)-phenyl]-pyrimidin-5-yl}-pyrazol-1-yl)-1-aza-spiro[4.5]decan-2-one]
100 to 1000	Cc1cc(-c2cccc(-c3ncc(-c4cnn([C@H]5CCCS(=O)(=O)C5)c4)cn3)c2)cnn1 (single isomer, unassigned) [Example 240]
100 to 1000	CN(C)C(=O)CCn1cc(-c2cnc(-c3cccc(-c4cnn(C)c4)c3)nc2)cn1 [Example 85, N,N-Dimethyl-3-(4-{2-[3-(1-methyl-1H-pyrazol-4-yl)-phenyl]-pyrimidin-5-yl}-pyrazol-1-yl)-propionamide]
< 100	Cc1cc(-c2cccc(-c3ncc(-c4cnn([C@H]5CC[C@H](C(=O)N(C)C)CC5)c4)cn3)c2)cnn1 [Example 187, trans-4-(4-{2-[3-(6-Methyl-pyridazin-4-yl)-phenyl]-pyrimidin-5-yl}-pyrazol-1-yl)-cyclohexanecarboxylic acid dimethylamide]
100 to 1000	CC(=O)N1CC[C@@H](n2cc(-c3cnc(-c4cccc(-c5cnn(C)c5)c4)nc3)cn2)C[C@H]1C [Example 249, 1-[(2R,4R)-2-Methyl-4-(4-{2-[3-(1-methyl-1H-pyrazol-4-yl)-phenyl]-pyrimidin-5-yl}-pyrazol-1-yl)-piperidin-1-yl]-ethanone]
100 to 1000	COCCn1cc(-c2cnc(-c3cccc(-c4cnn(C)c4)c3)nc2)cn1 [Example 98, 5-[1-(2-Methoxy-ethyl)-1H-pyrazol-4-yl]-2-[3-(1-methyl-1H-pyrazol-4-yl)-phenyl]-pyrimidine]
< 100	Cn1cc(-c2cccc(-c3ncc(-c4cnn([C@H]5CC[C@H](CO)CC5)c4)cn3)c2)cn1 [Example 238, Trans-[4-(4-{2-[3-(1-Methyl-1H-pyrazol-4-yl)-phenyl]-pyrimidin-5-yl}-pyrazol-1-yl)-cyclohexyl]-methanol]
1000 to 5000	Cn1cc(-c2cccc(-c3ncc(-c4cnn(C(C)(C)C(=O)N5CCOCC5)c4)cn3)c2)cn1 [Example 150, 2-Methyl-2-(4-{2-[3-(1-methyl-1H-pyrazol-4-yl)-phenyl]-pyrimidin-5-yl}-pyrazol-1-yl)-1-morpholin-4-yl-propan-1-one]
